According to PMC5972561, “Grapevine fatty acid hydroperoxide lyase generates actin-disrupting volatiles and promotes defence-related cell death” (Journal of Experimental Botany, 2018):

Molecular target: T1, VvHPL1 (VvMTh-HPL1; HPL1) (Vitis vinifera, UniProt F6HID6)
T1 sequence (F6HID6 1-487): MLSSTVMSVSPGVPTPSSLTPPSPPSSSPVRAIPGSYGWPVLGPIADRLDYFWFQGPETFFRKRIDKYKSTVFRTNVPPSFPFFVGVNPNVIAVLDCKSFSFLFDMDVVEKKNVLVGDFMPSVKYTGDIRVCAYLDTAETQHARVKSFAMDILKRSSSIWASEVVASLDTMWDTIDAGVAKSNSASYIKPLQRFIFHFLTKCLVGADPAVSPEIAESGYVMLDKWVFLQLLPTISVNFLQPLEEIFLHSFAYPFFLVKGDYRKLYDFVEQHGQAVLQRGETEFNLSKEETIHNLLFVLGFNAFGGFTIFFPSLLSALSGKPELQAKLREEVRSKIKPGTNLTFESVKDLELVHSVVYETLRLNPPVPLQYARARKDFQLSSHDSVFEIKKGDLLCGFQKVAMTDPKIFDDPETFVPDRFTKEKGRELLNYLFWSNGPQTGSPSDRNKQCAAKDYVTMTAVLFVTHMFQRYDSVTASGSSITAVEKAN
Assay: SBSE TD-GC-MS of volatile products
Type: biochemical
Details: 40 µM substrate, 50 mM sodium phosphate pH 7.0, ambient temperature, 2 h; enzyme partially purified

Structure (SMILES)	SBSE TD-GC-MS of volatile products
CC/C=C\C[C@@H](/C=C/C=C\CCCCCCCC(=O)O)OO [13(S)-hydroperoxy-9(Z),11(E), 15(Z)-octadecatrienoic acid]	13-HPOT as substrate yielded cis-3-hexenal and trans-2-hexenal
CCCCC[C@@H](/C=C/C=C\CCCCCCCC(=O)O)OO [13(S)-hydroperoxy-9(Z), 11(E)-octadecadienoic acid]	The major product from the conversion of 13-HPOD was hexanal
